Assay results from patent US20180066031A1, “ENZYMATICALLY-CLEAVABLE PEPTIDE AMPHIPHILES” (The University of Chicago, priority 2016, published 2018).

Target: T1, Recombinant human liver cathepsin-B (Homo sapiens, UniProt P07858)
T1 construct: purchased Sigma Aldrich
Assay: Cathepsin-B cleavage testing of peptide-AMC substrates
Format: biochemical
Settings: for AMC fluorescence intensity change over time following addition of catB: 1 mM peptide in activation buffer pH 5, emission 440 nm
Protocol: Peptide-AMC: Recombinant human liver cathepsin-B (Sigma Aldrich) was used for the in vitro experiments. 0.25 μM DTT used in 0.25 μM HEPES in PBS (pH 5) as activation buffer. Peptides were dissolved in activation buffer to a final concentration as 1 mM. 0.5 μL of catB enzyme or vehicle control was added into the peptide solution. Plate reader analysis with Tecan Infinite M200 PRO plate reader (Mannedorf, Switzerland) with triplicates of each sample were performed in 96 well plates. The intensity of the excited dye at 388 nm was measured at 440 nm. Dual dye-labeled peptide on resin: CatB and activation buffer were prepared as described above. Dye-labeled peptides were again left on the resin. Resin was washed with methanol, dried in a vacuum overnight, and then immersed in PBS (pH 7.4) for 1 hour at 37° C. PBS was then drained followed by addition of 1 mL activation buffer and 5 μL of catB for 100 mg of resin. Control testing was performed in the same solution without the addition of catB. Supernatant was collected after 3 hours and 24 hours. The florescence intensity of triplicates of each sample was measured with plate reader FAM (λexc=485 nm, λem=535 nm) and Tamra (λexc=520 nm, λem=620 nm).
A variety of enzyme-cleavable peptide sequences used in antibody-drug and peptide-drug conjugates were tested for efficacy in the systems herein (Ref. B35, B40-B43; incorporated by reference in their entireties).
The experimentally cleavable VC-PABA sequence and a control, non-cleavable triple glycine (GGG) linker, were conjugated to a 7-amino-4-methylcoumarin (AMC) dye, useful in studying protease activity and specificity (VC-PABA-AMC and GGG-AMC) (FIGS. 9A and 9B) (Ref. B45; incorporated by reference in its entirety). The electron group of the AMC fluorophore is localized, and thus remains quenched, when linked to the VC-PABA or GGG peptide substrate. When the covalent bond between the peptide and AMC is cleaved, this group de-localizes resulting in fluorescence detected at 440 nm (excitation: 348 nm) allowing for real-time measurement of enzyme/substrate kinetics. […]

Substance | AMC fluorescence intensity change over time following addition of catB | catB cleavage efficacy among tested enzyme-cleavable peptide sequences (comparison of linker sequences)
Glycine-Glycine-Glycine (GGG)-AMC [GGG-AMC, reference compound] | Neither GGG-AMC or GG-PABA-AMC showed any change in fluorophore intensity | 
Valine-Citrulline-Para(aminobenzoicacid) (VC-PABA)-AMC [VC-PABA-AMC] | rapidly increased | 
valine-citrulline [VC] |  | fastest and most complete cleavage
